Test results reported in patent publication US5945436A, “Pyridylmethyl nitriles, amides and thioamides useful as fungicides” (Uniroyal Chemical Company, Inc., priority 1997, dated 1999).

Legend:
[1] = tested on: Cercosporidium personatum; test: Fungal germination and growth, treated disc on agar, scored (CER PER); assay type: cell-based; design: key: 100: Complete inhibition of germination and growth.; 80: Nearly complete inhibition but some growth.; 50: Partial inhibition of growth or, early complete inhibition but later growth begins.; 20: Some inhibition of growth, but not significant.; 0: No inhibition of growth; details: disc dipped in 500 mg/l, 29° C., numerical score 0-100, spore suspension
Excerpt: Filter paper discs, each 11 mm. in diameter, were dipped in each of the test solutions. The discs were allowed to air dry to drive off the acetone solvent. A number of untreated discs were used as controls. The treated and untreated discs were then placed on agar plates and one of the following fungus species: Septoria nodorum (SEP NOD), Botrytis cinerea (BOT CIN), Fusarium oxysporum (FUS OXY), Pythium ultimum ([…]), Rhizoctonia solani (RHI SOL), Colletotrichum gossypii (COL GOS), and Scierotinia minor (SCL MIN), was added to the center of each disc in the form of a culture plug with the fungus mat in contact with the paper of the test disc. Cercosporidium personatum (CER PER), was added to discs as a spore suspension (20,000 spores/ml) to the disc (two drops of spore suspension per disc), rather than a mycelial culture plug. The plates were then incubated at 29° C. in an oven. In the case of the Cercosporidium personatum (CER PER) fungi, scoring was done on a numerical basis as follows: 100=Complete inhibition of germination and growth. 80=Nearly complete inhibition but some growth. 50=Partial inhibition of growth or, early complete inhibition but later growth begins. 20=Some inhibition of growth, but not significant. 0=No inhibition of growth. The results of all the above tests appear in Table III below under the headings "SEP NOD," "BOT CIN," "FUS OXY," "[…]" "COL GOS" and "CER PER".

Septoria nodorum = test: Fungal growth inhibition, treated disc on agar (SEP NOD); assay type: cell-based; details: Parastagonospora nodorum, disc dipped in 500 mg/l, 29° C., read-out: Percent Growth Inhibition, SEP NOD
Method: The treated and untreated discs were then placed on agar plates and one of the following fungus species: Septoria nodorum (SEP NOD), Botrytis cinerea (BOT CIN), Fusarium oxysporum (FUS OXY), Pythium ultimum (PYT ULT), Rhizoctonia solani (RHI SOL), Colletotrichum gossypii (COL GOS), and Scierotinia minor (SCL MIN), was added to the center of each disc in the form of a culture plug with the fungus mat in contact with the paper of the test disc. Cercosporidium personatum (CER PER), was added to discs as a spore suspension (20,000 spores/ml) to the disc (two drops of spore suspension per disc), rather than a mycelial culture plug. The plates were then incubated at 29° C. in an oven.
With the exception of the discs containing Cercosporidium personatum, the discs were evaluated by first measuring the radius from the center of the fungus colony on the treated discs and on the untreated discs. Percent growth inhibition of each of the compounds tested was determined as a function of the difference between the radius of the fungus colony on the treated disc versus the radius of the fungus colony on the untreated disc.

Pyricularia oryzae = test: whole plant or invertebrate; assay type: in vivo; details: Pyricularia oryzae, in Hordeum vulgare, foliar, 216 h, read-out: Percent Reduction of Disease, PYR ORY, barley, foliar, 1,000 mg/l
Botrytis cinerea = test: Fungal growth inhibition, treated disc on agar (BOT CIN); assay type: cell-based; details: Botrytis cinerea, disc dipped in 500 mg/l, 29° C., read-out: Percent Growth Inhibition, BOT CIN
Colletotrichum gossypii = test: Fungal growth inhibition, treated disc on agar (COL GOS); assay type: cell-based; details: Colletotrichum gossypii, disc dipped in 500 mg/l, 29° C., read-out: Percent Growth Inhibition, COL GOS
Scierotinia minor = test: Fungal growth inhibition, treated disc on agar (SCL MIN); assay type: cell-based; details: disc dipped in 500 mg/l, 29° C., read-out: Percent Growth Inhibition, SCL MIN
Erysiphe cichoracearum = test: Powdery mildew of cucumber, systemic root uptake (CMS); assay type: in vivo; details: 45 ml of 250 mg/l, 8 days after inoculation
Method: Compositions containing Compounds Nos. 1-81 were prepared by dissolving 0.24 grams of each of the compounds in 8 ml of acetone or other suitable inert solvent. Each of the resultant solutions was treated with 3 drops of TWEEN 20 (ethoxylated ethylene sorbitan monolaurate, a non-ionic surfactant)(I.C.I.), and water was added to form an emulsion. The degree of dilution with water was dictated by the desired concentration of the compound in the composition. The greater the quantity of water added, the lower the concentration of the compound in the composition, reported in milligrams per liter (mg/l) […] Upon reaching these ages, the plants were either treated with 45 ml of 250 mg/l concentration of the compositions of Example 9 or were left untreated. The untreated plants were used as controls. The 45 ml compositions saturated the soil of the treated pots without significant loss through drainage into the saucers below the pots. Twenty-four hours after the treatment with the compositions, both the barley and cucumber plants in all the pots, those treated and those untreated, were inoculated with powdery mildew fungus. This was accomplished by tapping leaves of previously infected barley and cucumber plants over the treated and untreated pots containing the barley and cucumber plants, respectively, to distribute spores of the fungus over the plants tested. […] Intermediate ratings were assigned depending on the degree of disease. […] The results of the powdery mildew disease control of barley are reported under the heading of "BMS". The results for cucumber mildew control are reported under the heading "CMS".

Helminthosporium sativum = test: Barley spot blotch, foliar treatment (HEL SAT); assay type: in vivo; details: Helminthosporium, foliar, 216 h, foliar, 1,000 mg/l, read-out: Percent Reduction of Disease, HEL SAT
Method: Compositions containing Compounds Nos. 1-81 were prepared by dissolving 0.24 grams of each of the compounds in 8 ml of acetone or other suitable inert solvent. Each of the resultant solutions was treated with 3 drops of TWEEN 20 (ethoxylated ethylene sorbitan monolaurate, a non-ionic surfactant)(I.C.I.), and water was added to form an emulsion. The degree of dilution with water was dictated by the desired concentration of the compound in the composition. The greater the quantity of water added, the lower the concentration of the compound in the composition, reported in milligrams per liter (mg/l) Ten plants of six day-old Barley (variety "Robust") were planted in each of a plurality of pots. Each pot was then either sprayed with one of the compositions of Example 9, at a concentration of 1,000 mg/l, or left unsprayed. The unsprayed plants were used as controls. An equal number of pots were sprayed and unsprayed. All plants, sprayed and unsprayed, were thereafter inoculated with spores of the blotch fungus Helminthosporium sativum. All inoculated plants were placed in a 99% humidity chamber for 24 hours and then placed in a greenhouse, maintained at a temperature of 21° C., for eight days. […] Percent control was computed and the results are summarized in Table II under the heading "HEL SAT".

Row | Structure (SMILES) | CER PER inhibition score [1] | inhibition at 500 µg/mL (Septoria nodorum) | pest or weed control at 1000 µg/mL (Pyricularia oryzae) | inhibition at 500 µg/mL (Botrytis cinerea) | inhibition at 500 µg/mL (Colletotrichum gossypii) | inhibition at 500 µg/mL (Scierotinia minor) | Percent Reduction of Disease, CMS (Erysiphe cichoracearum) | pest or weed control at 1000 µg/mL (Helminthosporium sativum)
1 | N#CC(CCc1ccccc1)(CCc1ccccc1)c1cccnc1 [A, reference compound] | 0 | 0% | 10% | 0% | 25% | 10% | 50% | 60%
2 | CC(C)(C)c1ccc(CC(C#N)(Cc2ccc(C(C)(C)C)cc2)c2cccnc2)cc1 [B, reference compound] | 0 | 10% | – | 0% | 0% | 60% | 50% | 0%
3 | CCCC(C#N)(CCc1ccccc1)c1cccnc1 (centres unmarked) [Compound 1] | 100 | 0% | 0% | 5% | 100% | 100% | 0% | 65%
4 | CCCCCCCC(C#N)(CCc1ccccc1)c1cccnc1 (centres unmarked) [Compound 2] | 100 | 0% | 45% | 60% | 60% | 100% | 0% | 80%
5 | CCCCCC(C#N)(CCc1ccccc1)c1cccnc1 (centres unmarked) [Compound 3] | 100 | 86% | 100% | 100% | 97% | 100% | 35% | 100%
6 | C#CCC(C#N)(CCc1ccccc1)c1cccnc1 (centres unmarked) [Compound 4] | 100 | 92% | 50% | 94% | 100% | 98% | 20% | 0%
7 | C=CCC(C#N)(CCc1ccccc1)c1cccnc1 (centres unmarked) [Compound 5] | 0 | 50% | 83% | 100% | 97% | 95% | 88% | 70%
8 | COCC(C#N)(CCc1ccccc1)c1cccnc1 (centres unmarked) [Compound 6] | 0 | 0% | 0% | 100% | 95% | 100% | 100% | 100%
9 | CC(C)CC(C#N)(CCc1ccccc1)c1cccnc1 (centres unmarked) [Compound 7] | 0 | 5% | 83% | 100% | 89% | 10% | 20% | 70%
10 | CC(C)=CCC(C#N)(CCc1ccccc1)c1cccnc1 (centres unmarked) [Compound 8] | 80 | 25% | 0% | 40% | 95% | 100% | 0% | 100%
11 | C=CCC(C#N)(CCc1ccc(F)cc1)c1cccnc1 (stereo not drawn) [Compound 9, 4-fluoro-α-(2-propenyl)-α-(3-pyridinyl)benzenebutanenitrile] | 100 | 30% | 70% | 100% | 100% | 98% | 74% | 85%
12 | CCCC(C#N)(CCc1ccc(F)cc1)c1cccnc1 (centres unmarked) [Compound 10] | 100 | 80% | 70% | 98% | 97% | 100% | 88% | 100%
13 | CCCCC(C#N)(CCc1ccc(F)cc1)c1cccnc1 (centres unmarked) [Compound 11] | 0 | 60% | 85% | 100% | 100% | 98% | 39% | 100%
14 | CCCC(C#N)(CCCc1ccc(Cl)cc1)c1cccnc1 (centres unmarked) [Compound 12] | 100 | 70% | 85% | 98% | 93% | 92% | 40% | 100%
15 | CCCCC(C#N)(CCCc1ccc(Cl)cc1)c1cccnc1 (centres unmarked) [Compound 13] | 0 | 75% | 85% | 98% | 93% | 94% | 0% | 100%
16 | CCCC(C#N)(Cc1ccc(C(C)(C)C)cc1)c1cccnc1 (centres unmarked) [Compound 14] | 0 | 0% | 100% | 15% | 5% | 5% | 84% | 60%
17 | C=C(Cl)CC(C#N)(CCc1ccc(F)cc1)c1cccnc1 (centres unmarked) [Compound 65] | 0 | 100% | – | 100% | 100% | 100% | 0% | 100%
18 | Cc1ccc(CCC(C#N)(CCCF)c2cccnc2)cc1 (centres unmarked) [Compound 81] | 0 | 40% | – | 30% | 20% | 0% | 0% | –
